Test results reported in a melting point compilation (Tetko et al.; mined from patent text by program, amines drawn as free bases though some values may be those of a salt).

Row | SMILES | melting point
1 | CCCCCCc1ccc(-c2ncc(C#N)c(Cl)n2)cc1 | 80.3 to 80.5 °C
2 | CN1C(=O)[C@@H](NC(=O)C2CCCCC2)N=C(c2ccccc2)c2ccccc21 | 212 to 214 °C
3 | CC(=O)SCCCCCCCCCCCOCCOCCOCCOc1ccc(OCc2ccccc2)cc1 | 55 to 57 °C
4 | CC(CSC(=S)c1ccccc1)C(=O)N1CCCC1C(=O)O (stereo not drawn) | 157 to 158 °C
5 | COC(=O)C=CC1C(C(=O)OC(C#N)c2cccc(Oc3ccccc3)c2)C1(C)C (stereo not drawn) | 98 °C
6 | CC(=O)NCC1CN(c2ccc(N3CCN(c4nncs4)CC3)c(F)c2)C(=O)O1 (stereo not drawn) | 206 to 208 °C
7 | O=C1NC(=O)C2(CCOC2)N1 (stereo not drawn) | 202 to 204 °C
8 | COc1ccc(N2C(=O)C3=C(SCCO3)C2=O)nn1 | 157 °C
9 | CCCCCCCC(=O)OC(C)c1ccc(-c2ccc(OCc3ccccc3)cc2)cc1 (single isomer, unassigned; (+)) | 91 to 92 °C
10 | CNC(=S)C(OC)c1ccccn1 (stereo not drawn) | 104 to 105 °C
11 | O=C1Nc2ccccc2/C1=C/c1c[nH]c2ncccc12 | > 280 °C
12 | CCOC(=O)c1c(N2CCN(C)CC2)c2cnc(-c3ccccc3)nc2n(CC)c1=O | 180 to 185 °C
13 | CCCC(=O)Nc1cnc2cccnc2c1O | > 360 °C
14 | CC#Cc1ccc(C2CCC(C3CCC(CCC)CC3)CC2)cc1 (stereo not drawn) | 82 °C
15 | c1ccc(N(c2ccccc2)c2ccsc2)cc1 | 79 to 82 °C
16 | CCC(CC)Nc1nc2c(c(-c3c(C)cc(C)cc3C)cn2C)c(=O)n1C | 174 to 176 °C
17 | c1cc(C2OCCO2)ccc1C1OCCO1 | 86 to 89 °C
18 | CCCCn1c(COCC)nc2c(N)nc3ccccc3c21 | 139 to 140 °C
19 | N#Cc1ccc(N2C(=O)N(CCF)C3(CCOCC3)C2=O)cc1C(F)(F)F | 192 to 193 °C
20 | CN1C(=O)Cc2cc(C(=O)[C@H]3C[C@H]3C(=O)O)ccc21 (relative stereo) | 237 to 240 °C
21 | COCC1COC(Cn2cncn2)(c2ccc(Cl)cc2Cl)O1 (stereo not drawn) | 64 to 74 °C
22 | COc1c(C(N)=O)sc(C(N)=O)c1N=NN(C)C | 226 to 228 °C
23 | CCOC(=O)c1cn(CCO)c2nc(N3CCN(C)CC3)ncc2c1=O | 197 to 199 °C
24 | CS(=O)C1C=Nc2cc(Cl)ccc2C1=O (stereo not drawn) | 247 to 249 °C
25 | CC(C)CC1(CC(=O)NO)CC(=O)N(CCc2ccccc2)C1=O (stereo not drawn) | 136 to 137 °C
26 | C[C@H]1C(=O)C[C@@H]2C[C@H]1OO[C@]2(C)/C=C\c1ccc(C(F)(F)F)cc1Cl | 160 °C
27 | C[C@@]1(NC(=O)c2cc3cccc4c3n2CCC4)C(=O)N(c2ccccc2F)c2ccccc21 | 194 to 195 °C
28 | O=C(c1ccc(F)cc1)N1CCN(S(=O)(=O)c2ccc(Nc3ccnc4cc(Cl)ccc34)cc2)CC1 | 235 to 237 °C

Row | SMILES | melting point
29 | Cc1nc(N2CCCC2)nc2c1c(=O)c(C(=O)O)cn2C1CC1 | 253 °C
30 | Cc1ccc(S(=O)(=O)N2CC2c2ccccc2)cc1 (stereo not drawn) | 92 to 94 °C
31 | CCCSc1cn(C)cc(-c2ccc(Cl)c(C(F)(F)F)c2)c1=O | 128 to 130 °C
32 | Cc1c(-c2ccccc2)oc2c(C(=O)NCCCN3CCN(c4ccccc4OC(F)(F)F)CC3)cccc2c1=O | 103 to 112 °C
33 | CCCS(=O)c1ccc(-c2coc3ccc(-c4nnc(C)o4)cc23)cc1 (stereo not drawn) | 140 to 141 °C
34 | CCC1(CC)c2cc(-c3nc4ccccc4s3)ccc2-c2ccc(N(c3cccc(Oc4ccc([N+](=O)[O-])cc4)c3)c3cccc(Oc4ccc([N+](=O)[O-])cc4)c3)cc21 | 200 to 201 °C
35 | Clc1ccc2nc(-c3ccccc3)cc(CCC3CCCNC3)c2c1 (stereo not drawn) | > 260 °C
36 | O=C(c1ccccc1)N1CCn2c(CN3CCCCC3)ccc2C1 | 95 to 96 °C
37 | NC(=O)CCCCCc1nccc(NC(N)=NCC(F)(F)F)n1 | 179 to 181 °C
38 | COc1cc2c(cc1-c1cc(-c3ccc(C#N)cc3)on1)C(C)(C)CCC2(C)C | 202 to 203 °C
39 | CN(C)c1ccc(-c2nc3cccnc3o2)cc1 | 168 to 170 °C
40 | NCCOC(c1ccccc1)(c1ccccc1)c1ccccc1 | 87 to 89 °C
41 | Cc1ccc2[nH]c(-c3ccccc3)cc(=O)c2c1 | 290 to 292 °C
42 | CCCCCCCCC(CCC(=O)O)C(C)=O (stereo not drawn) | 36 to 38 °C
43 | COC(=O)C1SC=CC1Sc1ccccc1 (stereo not drawn) | 43 to 45 °C
44 | O=C(Nc1ccc2cc(CN3CCCCCC3)cnc2c1)c1ccc(-c2ccc(F)cc2)cc1 | 202 °C
45 | Cc1ccc(F)c2c1N(C(c1ccccc1)c1ccccc1)C(=O)C21COc2cc3c(cc21)CCO3 (stereo not drawn) | 81 to 82 °C
46 | CCOCn1c(N)c(C#N)c2c(N)ncnc21 | 229 to 230 °C
47 | CCOC1=NS(=O)(=O)c2cc(NC(=O)CC)ccc21 | 188 to 192 °C
48 | CCC(=NOCC=Cc1ccc(Br)cc1)C1=C(O)CC(C2CCCSC2)CC1=O (stereo not drawn) | 97 to 99 °C
49 | CCn1ncc2nc(C(=O)OCC#N)c(C)nc21 | 83 to 84 °C
50 | C[C@]12CC[C@H](O)CC1=CCC1C2CC[C@@]2(C)C1CC[C@@H]2c1cn(Cc2ccccc2)nn1 (stereo partly drawn) | 286 to 287 °C
51 | Cc1nnc(-c2[nH]c3ccccc3c2Cl)o1 | 267 to 268 °C
52 | Cc1nc2sc(Br)cc2c(=O)n1-c1ccccc1Cl | 164 to 166 °C
53 | N#Cc1ncccc1Oc1ccccc1 | 79 to 82 °C
54 | CC(C)NCC1CCN(c2nc3c(cc2F)c(=O)c(C(=O)O)cn3C2CC2)C1 (stereo not drawn) | 240 to 243 °C
55 | O=[N+]([O-])c1ccc(OCC#CC#CCOc2ccc([N+](=O)[O-])cc2[N+](=O)[O-])cc1 | 125 °C

Now from value to molecule:

Row | melting point | SMILES
56 | 70 to 72 °C | CC(C)(C)OC(=O)N1CCCC1C(=O)Nc1ccc(-n2nc(C(F)(F)F)cc2C(F)(F)F)cc1 (stereo not drawn)
57 | 118 to 120 °C | COC(=O)Cc1csc2cc(-c3ccccc3)c(C=O)n12
58 | 96 to 97 °C | CCOc1ccccc1C(=O)C=Cc1ccc2ccccc2c1
59 | 210 °C | CNC(=O)NS(=O)(=O)c1cc(CCNC(=O)C=Cc2ccc(OC)cc2OC)ccc1OC
60 | 127 °C | COc1ncccc1-c1cc(F)c(F)c(OC2SCC(O)C(O)C2O)c1 (stereo not drawn)
61 | 137 to 138 °C | COc1cc(COc2nn(-c3ccccc3)cc2C=O)ccc1OCc1nc(-c2ccco2)oc1C
62 | 240 to 245 °C | CC(C)n1c(=O)nc(-c2ccc(N(C)C)cc2)c2cc3c(cc21)OCO3
63 | 111 to 112 °C | CC(C)(C)c1ccc(NC(=O)Nc2ccc(Oc3cc(Cl)ncn3)cc2)cc1
64 | 109 to 110 °C | CCOC(=O)C(=NO)c1cccc(C(=O)c2ccccc2)c1
65 | 141 to 143 °C | CNC(=O)Nc1cccc(-c2noc(C(F)(F)F)n2)c1
66 | 84 to 86 °C | CC(O)COc1c2ccccc2c(C=O)c2ccccc12 (stereo not drawn)
67 | > 300 °C | COC(=O)NNC(=O)Nc1cccc2c1C(=O)c1c-2n[nH]c1-c1ccc(OC)cc1
68 | 109 °C | CCOC(=O)c1nc(C)n(Cc2ccc([N+](=O)[O-])cc2)c1C(=O)OCC
69 | 85 to 88 °C | COc1ccc(C(F)(F)F)cc1-c1ccc(S(=O)(=O)N2c3ccccc3CC2C(=O)NCCOc2ccc(CC(=O)O)cc2)cc1 (stereo not drawn)
70 | 246 to 247 °C | COC(=O)c1cc(C(=O)NCC(=O)O)c2cc(Cc3ccc(F)cc3)cnc2c1O
71 | 285 to 290 °C | COc1ccc(Cl)cc1-c1n[nH]c(=O)cc1NN
72 | 149 to 151 °C | CN(C)CCNC(=O)c1ccc(C(Cc2ccc(F)cc2)C(=O)Nc2nc3ccccc3o2)cc1 (stereo not drawn)
73 | 87 to 88 °C | CC(Oc1ccc(Oc2ccc(C(F)(F)F)cc2)cc1)C(=O)OCS(C)(=O)=O (stereo not drawn)
74 | 226 °C | COc1ccc(-c2[nH]nc3c2C(=O)c2c(NC(=O)Cc4cc(OC)ccc4OC)cccc2-3)cc1
75 | 163 to 170 °C | CCc1nc2cc(S(N)(=O)=O)c(Cl)cc2n1-c1ccc(CCNC(=O)NS(=O)(=O)c2ccc(C)cc2)cc1
76 | 150 to 153 °C | NS(=O)(=O)c1ccc(N2CCN(Cc3ccc4c(c3)NC(=O)CO4)CC2)cc1
77 | 102 °C | CCCCC#Cc1cc(C=CCC(=O)O)ccc1OC

Row | melting point | SMILES
78 | 206 to 208 °C | O=C(O)c1oc(=O)c2ccc(Cl)cc2c1-c1ccccc1
79 | 135 to 138 °C | COc1cccc2c1C(=O)OC2c1ccccc1 (stereo not drawn)
80 | 200 to 201 °C | O=C(NCc1ccc(Cl)cc1)c1cc2c3c(cc(CN4CCOCC4)cn3c1=O)CCC2
81 | 101 to 103 °C | Cn1c(C(=O)OC(C)(C)C)c(O)c2cc(OCc3ccccc3)ccc21
82 | 167 to 168 °C | CC(C)[C@@H]1COC(=O)N1C(=O)[C@@H](CC(=O)OC(C)(C)C)Cc1ccccc1
83 | 208 to 211 °C | Cc1cc(Nc2ncnc3ccc(-n4ccnc4)cc23)ccc1OCc1ccccn1
84 | 196 to 197 °C | O=C1NC(=O)C(S(=O)(=O)c2ccc3ccccc3c2)S1 (stereo not drawn)
85 | > 260 °C | CC(=O)Nc1ccc(CNc2n[nH]c3ncnc(Nc4cccc(Cl)c4)c23)cc1
86 | 136 to 141 °C | Cc1cc(Cc2cnc(NCCCCc3ncc(Br)cc3C)[nH]c2=O)cnc1CO
87 | 146 to 149 °C | COc1cccc2cccc(S(=O)(=O)N(C)C)c12
88 | 110 °C | CC(C)(C)c1cccc(S(=O)(=O)n2c(Cc3ccc(C(=O)O)s3)cc3cc(C(F)(F)F)ccc32)c1
89 | 121 to 123 °C | COc1c(C)cc2c(c1C)C(c1ccc(C(C)C)cc1)C(C)(C)O2 (stereo not drawn)
90 | 107 to 108 °C | COc1cc2cc(CO)c(CO)c(-c3cccc(Br)n3)c2cc1OC
91 | 138 to 141 °C | C[C@]1(F)C(=O)O[C@H](COC(=O)c2ccc(Cl)cc2)[C@H]1OC(=O)c1ccc(Cl)cc1
92 | 141 to 143 °C | Nc1ccc(NC(=O)C(=O)N2CCC(Cc3ccc(F)cc3)CC2)cc1
93 | 63 to 64 °C | CCOC(=O)C(C)Oc1ccc(Sc2ccc(C(F)(F)F)cc2[N+](=O)[O-])cc1 (stereo not drawn)
94 | 108 to 110 °C | COc1c(C)cc(-c2[nH]c3ccccc3c2C)cc1C
95 | 252 to 254 °C | CCOCc1nc2c(N)nc3ccc(O)cc3c2n1CC(C)(C)NS(C)(=O)=O
96 | 185 to 190 °C | O=C(O)c1ccccc1-c1c2ccc(=O)cc-2oc2cc(O)ccc12
97 | 99 to 102 °C | CCCCNc1c(C#N)cnc2cc(OCCOC)c(OC)cc12
98 | 105 to 108 °C | COCc1ncc(-n2nc(C)cc2C)nc1Nc1ccc(Cl)cc1
